Laboratory results from patent US20260001928A1 (CORTERIA PHARMACEUTICALS, priority 2022, published 2026).
*1 amine or outer side, *2 acyl side, *3 side chain or, on linkers, in order; H or OH if unused. Where a SMILES comes first, the peptide text is derived from it. Side-chain parts run from the residue outwards. [ ]: non-standard residue; d: D form. The star is where a group is joined. C18 diacid = O=C(O)CCCCCCCCCCCCCCCCC(=O)*; C16 diacid = O=C(O)CCCCCCCCCCCCCCC(=O)*; γGlu = O=C(O)[C@H](CCC(=O)[*:2])N[*:1]; NMeI = CC[C@H](C)[C@H](NC)C(=O)O; αMeL = CC(C)C[C@](C)(N)C(=O)O; Dap = NC[C@H](N)C(=O)O; Pentanoyl = CCCCC(=O)*; AEEA = NCCOCCOCC(=O)O; Aib = CC(C)(N)C(=O)O; Propionyl = CCC(=O)*

Legend:
CFR1R receptor = target: T1, CFR1R receptor (Homo sapiens, UniProt P34998); experiment: Activity at anti-target CFR1R receptor, cAMP assay in CRF1R-overexpression CHO-K1 cells; type: cell-based; details: 100% = Sauvagine at 100 nM; for EC50: cAMP
T1 construct: host or cells: CHO-K1 (clone 2)
T1 sequence (P34998 24-415): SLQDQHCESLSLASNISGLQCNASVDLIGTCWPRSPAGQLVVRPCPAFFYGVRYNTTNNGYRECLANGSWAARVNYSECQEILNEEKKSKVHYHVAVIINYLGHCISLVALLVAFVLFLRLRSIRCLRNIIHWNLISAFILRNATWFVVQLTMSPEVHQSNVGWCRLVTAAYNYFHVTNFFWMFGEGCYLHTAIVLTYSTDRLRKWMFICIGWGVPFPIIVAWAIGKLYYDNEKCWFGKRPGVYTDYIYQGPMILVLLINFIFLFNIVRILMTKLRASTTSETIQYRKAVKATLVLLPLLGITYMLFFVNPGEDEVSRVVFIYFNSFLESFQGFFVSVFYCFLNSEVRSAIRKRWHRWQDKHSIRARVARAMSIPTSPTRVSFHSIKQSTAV
Summary of the method: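 Clone 2; cryopreserved stocks (10% DMSO); 4000 cells/well final; 100% activation = Sauvagine 100 nM; otherwise as TeloHAEC protocol.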

human CRF2a receptor = target: T2, human CRF2a receptor (Homo sapiens, UniProt Q13324); experiment: Activity at human CRF2a receptor, cAMP functional assay in TeloHEAC cells; type: cell-based; details: TeloHEAC cells stably expressing human CRF2a receptor, relative to urocortin 2 (100 nM = 100%)
T2 construct: expressed in transfected cells; host or cells: TeloHEAC cells
T2 sequence (Q13324 1-411): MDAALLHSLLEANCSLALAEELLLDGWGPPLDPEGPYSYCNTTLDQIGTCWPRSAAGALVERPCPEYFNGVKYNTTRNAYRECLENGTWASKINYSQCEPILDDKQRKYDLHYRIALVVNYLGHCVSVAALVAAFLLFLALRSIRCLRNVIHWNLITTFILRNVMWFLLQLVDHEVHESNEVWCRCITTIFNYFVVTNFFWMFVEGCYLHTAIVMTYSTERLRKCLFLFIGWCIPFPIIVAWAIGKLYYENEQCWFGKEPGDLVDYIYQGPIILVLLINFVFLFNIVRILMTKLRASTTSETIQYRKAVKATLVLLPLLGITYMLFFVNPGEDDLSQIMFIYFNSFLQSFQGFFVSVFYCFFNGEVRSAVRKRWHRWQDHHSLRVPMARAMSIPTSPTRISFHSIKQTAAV
Summary of the method: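 TeloHEAC cells stably expressing human CRF2a (10000 cells/well, suspended in HBSS/20 mM HEPES with 2 mM IBMX) were exposed to compounds for 30 min at 37 °C. cAMP was read as the 665/620 nm fluorescence ratio after 1 h at room temperature. EC50 was derived relative to 100 nM urocortin 2, set as 100%.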

| SMILES | Emax (% I) (CFR1R receptor) | EC50 (CFR1R receptor) | EC50 (human CRF2a receptor) |
| --- | --- | --- | --- |
| CC[C@H](C)[C@H](NC(C)=O)C(=O)N[C@H](C(=O)N[C@@H](CC(C)C)C(=O)N[C@@H](CO)C(=O)N[C@@H](CC(C)C)C(=O)N[C@@H](CC(=O)O)C(=O)N[C@@H](C(=O)N1CCC[C@H]1C(=O)N[C@H](C(=O)N[C@@H](CCCCN)C(=O)N[C@@H](CC(C)C)C(=O)N[C@@H](CCCCNC(=O)CC[C@H](NC(=O)CCCCCCCCCCCCCCCCC(=O)O)C(=O)O)C(=O)N[C@@H](CCCCN)C(=O)N[C@H](C(=O)N[C@@H](CC(C)C)C(=O)N[C@@H](CC(C)C)C(=O)N[C@@H](CCC(=O)O)C(=O)N[C@@H](CCC(N)=O)C(=O)N[C@@H](CCC(=O)O)C(=O)N[C@@H](CCCCN)C(=O)N[C@@H](CCC(N)=O)C(=O)N[C@@H](CCCCN)C(=O)N[C@@H](CCCCN)C(=O)N[C@@H](CCC(N)=O)C(=O)N[C@@H](CCCNC(=N)N)C(=O)N[C@@H](CCC(=O)O)C(=O)N[C@@H](CCC(N)=O)C(=O)N[C@@H](C)C(=O)N[C@@H](CCC(=O)O)C(=O)N[C@H](C(=O)N[C@@H](CC(N)=O)C(=O)N[C@@H](CN)C(=O)N[C@@H](CCC(N)=O)C(=O)N[C@H](C(=O)N[C@@H](CC(C)C)C(=O)N[C@@H](C)C(=O)N[C@@H](CCC(N)=O)C(=O)N[C@H](C(N)=O)C(C)C)[C@@H](C)CC)[C@@H](C)O)[C@@H](C)CC)[C@@H](C)CC)C(C)C)C(C)C [compound 128] (Ac-IVLSLD[dV]PIKLK([γGlu-C18 diacid])KILLEQEKQKKQREQAETN[Dap]QILAQV-NH2) | 10 % I | > 250 nM | 0.17 nM |
| CC[C@H](C)[C@H](NC(C)=O)C(=O)N[C@H](C(=O)N[C@@H](CC(C)C)C(=O)N[C@@H](CO)C(=O)N[C@@H](CC(C)C)C(=O)N[C@@H](CC(=O)O)C(=O)N[C@@H](C(=O)N1CCC[C@H]1C(=O)N[C@H](C(=O)N[C@@H](CCCCN)C(=O)N[C@@H](CC(C)C)C(=O)N[C@@H](CCCCNC(=O)CC[C@H](NC(=O)CCCCCCCCCCCCCCC(=O)O)C(=O)O)C(=O)N[C@@H](CCC(N)=O)C(=O)N[C@H](C(=O)N[C@@H](CC(C)C)C(=O)N[C@@H](CC(C)C)C(=O)N[C@@H](CCCCN)C(=O)N[C@@H](CCC(N)=O)C(=O)N[C@@H](CCC(=O)O)C(=O)N[C@@H](CCCNC(=N)N)C(=O)N[C@@H](CCC(N)=O)C(=O)N[C@@H](CCCCN)C(=O)N[C@@H](CCCCN)C(=O)N[C@@H](CCC(N)=O)C(=O)N[C@@H](CCCNC(=N)N)C(=O)N[C@@H](CCC(=O)O)C(=O)N[C@@H](CCC(N)=O)C(=O)N[C@@H](C)C(=O)N[C@@H](CCC(=O)O)C(=O)N[C@@H](CCCCN)C(=O)N[C@@H](CC(N)=O)C(=O)NC(C)(C)C(=O)N[C@@H](CCC(N)=O)C(=O)N[C@H](C(=O)N[C@@H](CC(C)C)C(=O)N[C@@H](CCC(=O)O)C(=O)N[C@@H](CCC(N)=O)C(=O)N[C@H](C(N)=O)C(C)C)[C@@H](C)CC)[C@@H](C)CC)[C@@H](C)CC)C(C)C)C(C)C [compound 16] (Ac-IVLSLD[dV]PIKLK([γGlu-C16 diacid])QILLKQERQKKQREQAEKN[Aib]QILEQV-NH2) | 47 % I | – | 0.13 nM |
| CC[C@H](C)[C@H](NC)C(=O)N[C@H](C(=O)N[C@@H](CC(C)C)C(=O)N[C@@H](CO)C(=O)N[C@@H](CC(C)C)C(=O)N[C@@H](CC(=O)O)C(=O)N[C@@H](C(=O)N1CCC[C@H]1C(=O)N[C@H](C(=O)N[C@@H](CCCCN)C(=O)N[C@@H](CC(C)C)C(=O)N[C@@H](CCCCNC(=O)COCCOCCNC(=O)COCCOCCNC(=O)CC[C@H](NC(=O)CCCCCCCCCCCCCCCCC(=O)O)C(=O)O)C(=O)N[C@@H](CCCCN)C(=O)N[C@H](C(=O)N[C@@H](CC(C)C)C(=O)N[C@@H](CC(C)C)C(=O)N[C@@H](CCC(=O)O)C(=O)N[C@@H](CCC(N)=O)C(=O)N[C@@H](CCC(=O)O)C(=O)N[C@@H](CCCCN)C(=O)N[C@@H](CCC(N)=O)C(=O)N[C@@H](CCCCN)C(=O)N[C@@H](CCCCN)C(=O)N[C@@H](CCC(N)=O)C(=O)N[C@@H](CCCNC(=N)N)C(=O)N[C@@H](CCC(=O)O)C(=O)N[C@@H](CCC(N)=O)C(=O)N[C@@H](C)C(=O)N[C@@H](CCC(=O)O)C(=O)N[C@H](C(=O)N[C@@H](CC(N)=O)C(=O)N[C@@H](CCC(=O)O)C(=O)N[C@@H](CCC(N)=O)C(=O)N[C@H](C(=O)N[C@@H](CC(C)C)C(=O)N[C@@H](C)C(=O)N[C@@H](CCC(N)=O)C(=O)N[C@H](C(N)=O)C(C)C)[C@@H](C)CC)[C@@H](C)O)[C@@H](C)CC)[C@@H](C)CC)C(C)C)C(C)C [compound 116] (H-[NMeI]VLSLD[dV]PIKLK([AEEA-AEEA-γGlu-C18 diacid])KILLEQEKQKKQREQAETNEQILAQV-NH2) | 0 % I | > 250 nM | 0.37 nM |
| CCCCC(=O)N[C@H](C(=O)N[C@@H](CC(C)C)C(=O)N[C@@H](CO)C(=O)N[C@@H](CC(C)C)C(=O)N[C@@H](CC(=O)O)C(=O)N[C@@H](C(=O)N1CCC[C@H]1C(=O)N[C@H](C(=O)N[C@@H](CCCCN)C(=O)N[C@@](C)(CC(C)C)C(=O)N[C@@H](CCCCNC(=O)COCCOCCNC(=O)COCCOCCNC(=O)CC[C@H](NC(=O)CCCCCCCCCCCCCCCCC(=O)O)C(=O)O)C(=O)N[C@@H](CCCCN)C(=O)N[C@H](C(=O)N[C@@H](CC(C)C)C(=O)N[C@@H](CC(C)C)C(=O)N[C@@H](CCC(=O)O)C(=O)N[C@@H](CCC(N)=O)C(=O)N[C@@H](CCC(=O)O)C(=O)N[C@@H](CCCCN)C(=O)N[C@@H](CCC(N)=O)C(=O)N[C@@H](CCCCN)C(=O)N[C@@H](CCCCN)C(=O)N[C@@H](CCC(N)=O)C(=O)N[C@@H](CCCNC(=N)N)C(=O)N[C@@H](CCC(=O)O)C(=O)N[C@@H](CCC(N)=O)C(=O)N[C@@H](C)C(=O)N[C@@H](CCC(=O)O)C(=O)N[C@H](C(=O)N[C@@H](CC(N)=O)C(=O)NC(C)(C)C(=O)N[C@@H](CCC(N)=O)C(=O)N[C@H](C(=O)N[C@@H](CC(C)C)C(=O)N[C@@H](C)C(=O)N[C@@H](CCC(N)=O)C(=O)N[C@H](C(N)=O)C(C)C)[C@@H](C)CC)[C@@H](C)O)[C@@H](C)CC)[C@@H](C)CC)C(C)C)C(C)C [compound 123] (Pentanoyl-VLSLD[dV]PIK[αMeL]K([AEEA-AEEA-γGlu-C18 diacid])KILLEQEKQKKQREQAETN[Aib]QILAQV-NH2) | 14 % I | > 250 nM | 0.7 nM |
| CCC(=O)N[C@H](C(=O)N[C@@H](CC(C)C)C(=O)N[C@@H](CO)C(=O)N[C@@H](CC(C)C)C(=O)N[C@@H](CC(=O)O)C(=O)N[C@@H](C(=O)N1CCC[C@H]1C(=O)N[C@H](C(=O)N[C@@H](CCCCN)C(=O)N[C@@H](CC(C)C)C(=O)N[C@@H](CCCCNC(=O)CC[C@H](NC(=O)CCCCCCCCCCCCCCC(=O)O)C(=O)O)C(=O)N[C@@H](CCCCN)C(=O)N[C@H](C(=O)N[C@@H](CC(C)C)C(=O)N[C@@H](CC(C)C)C(=O)N[C@@H](CCC(=O)O)C(=O)N[C@@H](CCC(N)=O)C(=O)N[C@@H](CCC(=O)O)C(=O)N[C@@H](CCCCN)C(=O)N[C@@H](CCC(N)=O)C(=O)N[C@@H](CCCCN)C(=O)N[C@@H](CCCCN)C(=O)N[C@@H](CCC(N)=O)C(=O)N[C@@H](CCCNC(=N)N)C(=O)N[C@@H](CCC(=O)O)C(=O)N[C@@H](CCC(N)=O)C(=O)N[C@@H](C)C(=O)N[C@@H](CCC(=O)O)C(=O)N[C@H](C(=O)N[C@@H](CC(N)=O)C(=O)NC(C)(C)C(=O)N[C@@H](CCC(N)=O)C(=O)N[C@H](C(=O)N[C@@H](CC(C)C)C(=O)N[C@@H](C)C(=O)N[C@@H](CCC(N)=O)C(=O)N[C@H](C(N)=O)C(C)C)[C@@H](C)CC)[C@@H](C)O)[C@@H](C)CC)[C@@H](C)CC)C(C)C)C(C)C [compound 78] (Propionyl-VLSLD[dV]PIKLK([γGlu-C16 diacid])KILLEQEKQKKQREQAETN[Aib]QILAQV-NH2) | 7 % I | > 250 nM | 0.73 nM |
